In assay [1] the target is dog NPC1L1 endogenously expressed in MDCKII cells (Canis lupus familiaris, UniProt A0A8I3RZG1). The assay can be described thus: [3H]AS binding to MDCKII cells (saturation, kinetics, competition, acid wash). To be noted: for IC50: 5.49 nM [3H]AS, 4 h, 37° C., read-out: IC50 inhibition of [3H]AS binding; for Ki: MDCKII cells. The protocol: (§1) rNPC1L1/HEK293 and TsA201 cells were seeded at a density of 10,000 cells per well in 96-well poly-D-lysine coated plates and cells were allowed to attach for approximately 18 h at 37° C. TsA201 cells were subsequently transfected with dog NPC1L1/pcDNA5/FRT according to the manufacturer's instructions (Roche) and incubated for 3 days at 37° C. MDCKII-derived, LLC-PKI, HepG2, or CaCo-2 cells were seeded at a density of 25,000 cells per well in 96-well tissue culture treated plates, and cells were allowed to attach and differentiate for approximately 72 h at 37° C., except for CaCo-2 cells where differentiation took approximately 14 days at 37° C. […] Duplicate samples were averaged for each experimental point. […] Dissociation kinetics were determined by addition of 100 μM EZE-gluc, and incubating for different periods of time. Nonspecific binding was defined in the presence of 100 μM EZE-gluc. At the end of the incubation period, cells were washed twice with 200 μl of pre-warmed DMEM to separate bound from free ligand, 1% SDS was added to the wells followed by 5 ml of Scintillant, and radioactivity associated with cells was determined using a β-counter. […] Thereafter, plates were placed on ice and cells were washed twice with ice-cold PBS, followed by ice-cold acid wash with DMEM, pH 3.5, for 1, 5 or 15 minutes. […] For Transwell experiments, MDCKII cells were seeded at 200,000 cells/well in a 24-well plate and incubated for 3 days at 37° C. […] Thereafter, both apical and basolateral compartments were washed three times with PBS, and the Transwell filter was cut out and its associated radioactivity determined using afi-counter. Data from saturation, competition and ligand dissociation experiments were analyzed as described in the literature; see, Priest, et al., 2004 Biochemistry 43:9866-9876; Knaus et al., 1995 Biochemistry 34:13627-13634. The association rate, k1, was determined by employing the pseudo-first-order rate equation k1=kobs([LR]e/[L][LR]max)) where [LR]max is the concentration of the complex at equilibrium, [L] is the concentration of ligand, [LR]max is the total receptor concentration, kobs is the slope of the pseudo-first order plot, ln([LR]e/([LR]e−[LR]t)) versus time, and [LR]t is the receptor-ligand complex at one given time point t.

For another assay, the target named is T1, human NPC1L1 (Homo sapiens, UniProt Q9UHC9).
T1 construct: expressed in transfected cells
T1 sequence (Q9UHC9 22-1359): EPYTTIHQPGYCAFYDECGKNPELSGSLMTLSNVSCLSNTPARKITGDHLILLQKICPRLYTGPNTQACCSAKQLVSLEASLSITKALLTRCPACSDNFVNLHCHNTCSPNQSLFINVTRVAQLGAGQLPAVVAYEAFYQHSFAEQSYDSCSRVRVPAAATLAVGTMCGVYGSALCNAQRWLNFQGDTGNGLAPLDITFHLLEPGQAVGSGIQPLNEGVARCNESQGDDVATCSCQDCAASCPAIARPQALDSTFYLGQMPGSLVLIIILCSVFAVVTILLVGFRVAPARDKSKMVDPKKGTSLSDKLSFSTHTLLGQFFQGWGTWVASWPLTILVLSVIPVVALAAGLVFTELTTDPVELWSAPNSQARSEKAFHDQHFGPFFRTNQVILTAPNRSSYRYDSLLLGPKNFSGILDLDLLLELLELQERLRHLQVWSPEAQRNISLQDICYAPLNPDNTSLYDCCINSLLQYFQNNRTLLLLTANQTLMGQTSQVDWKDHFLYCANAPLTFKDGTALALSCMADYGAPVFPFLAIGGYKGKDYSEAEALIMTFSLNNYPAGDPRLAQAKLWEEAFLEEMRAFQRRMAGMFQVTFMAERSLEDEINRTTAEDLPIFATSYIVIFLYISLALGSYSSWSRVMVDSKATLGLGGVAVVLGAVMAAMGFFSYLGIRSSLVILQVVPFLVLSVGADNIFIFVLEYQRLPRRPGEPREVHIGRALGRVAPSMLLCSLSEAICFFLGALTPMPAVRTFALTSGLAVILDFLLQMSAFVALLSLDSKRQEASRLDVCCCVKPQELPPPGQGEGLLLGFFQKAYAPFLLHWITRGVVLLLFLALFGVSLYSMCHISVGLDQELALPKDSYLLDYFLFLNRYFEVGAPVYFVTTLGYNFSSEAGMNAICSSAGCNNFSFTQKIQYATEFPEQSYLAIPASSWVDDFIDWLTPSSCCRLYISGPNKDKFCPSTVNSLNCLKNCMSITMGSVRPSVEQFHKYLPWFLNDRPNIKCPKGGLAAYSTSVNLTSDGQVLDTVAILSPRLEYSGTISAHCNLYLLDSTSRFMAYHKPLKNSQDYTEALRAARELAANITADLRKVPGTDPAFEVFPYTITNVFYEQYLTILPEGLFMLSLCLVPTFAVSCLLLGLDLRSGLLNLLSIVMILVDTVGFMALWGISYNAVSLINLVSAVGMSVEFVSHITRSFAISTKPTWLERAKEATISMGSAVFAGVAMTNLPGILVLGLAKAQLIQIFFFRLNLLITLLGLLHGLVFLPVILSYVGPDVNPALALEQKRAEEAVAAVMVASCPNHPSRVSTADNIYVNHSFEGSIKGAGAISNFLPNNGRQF
The assay can be described thus: [3H]AS binding to hNPC1L1/MDCKII-Flp cells. To be noted: FIG. 7D, read-out: Ki inhibition of [3H]AS binding. How it is done: as §1
To validate MDCKII cells as an appropriate surrogate system for monitoring NPC1L1-dependent processes, we evaluated their ability to perform EZE-sensitive cholesterol flux using a similar protocol to that recently reported. This assay makes use of the ability of βmCD to deplete membrane-bound cholesterol. […]
To further characterize the [^3H] cholesterol influx process into MDCK cells, the potency of EZE-like compound PS for inhibiting [^3H] cholesterol uptake was determined.

dog NPC1L1 endogenously expressed in MDCKII cells, sequence (A0A8I3RZG1 entry or part of it): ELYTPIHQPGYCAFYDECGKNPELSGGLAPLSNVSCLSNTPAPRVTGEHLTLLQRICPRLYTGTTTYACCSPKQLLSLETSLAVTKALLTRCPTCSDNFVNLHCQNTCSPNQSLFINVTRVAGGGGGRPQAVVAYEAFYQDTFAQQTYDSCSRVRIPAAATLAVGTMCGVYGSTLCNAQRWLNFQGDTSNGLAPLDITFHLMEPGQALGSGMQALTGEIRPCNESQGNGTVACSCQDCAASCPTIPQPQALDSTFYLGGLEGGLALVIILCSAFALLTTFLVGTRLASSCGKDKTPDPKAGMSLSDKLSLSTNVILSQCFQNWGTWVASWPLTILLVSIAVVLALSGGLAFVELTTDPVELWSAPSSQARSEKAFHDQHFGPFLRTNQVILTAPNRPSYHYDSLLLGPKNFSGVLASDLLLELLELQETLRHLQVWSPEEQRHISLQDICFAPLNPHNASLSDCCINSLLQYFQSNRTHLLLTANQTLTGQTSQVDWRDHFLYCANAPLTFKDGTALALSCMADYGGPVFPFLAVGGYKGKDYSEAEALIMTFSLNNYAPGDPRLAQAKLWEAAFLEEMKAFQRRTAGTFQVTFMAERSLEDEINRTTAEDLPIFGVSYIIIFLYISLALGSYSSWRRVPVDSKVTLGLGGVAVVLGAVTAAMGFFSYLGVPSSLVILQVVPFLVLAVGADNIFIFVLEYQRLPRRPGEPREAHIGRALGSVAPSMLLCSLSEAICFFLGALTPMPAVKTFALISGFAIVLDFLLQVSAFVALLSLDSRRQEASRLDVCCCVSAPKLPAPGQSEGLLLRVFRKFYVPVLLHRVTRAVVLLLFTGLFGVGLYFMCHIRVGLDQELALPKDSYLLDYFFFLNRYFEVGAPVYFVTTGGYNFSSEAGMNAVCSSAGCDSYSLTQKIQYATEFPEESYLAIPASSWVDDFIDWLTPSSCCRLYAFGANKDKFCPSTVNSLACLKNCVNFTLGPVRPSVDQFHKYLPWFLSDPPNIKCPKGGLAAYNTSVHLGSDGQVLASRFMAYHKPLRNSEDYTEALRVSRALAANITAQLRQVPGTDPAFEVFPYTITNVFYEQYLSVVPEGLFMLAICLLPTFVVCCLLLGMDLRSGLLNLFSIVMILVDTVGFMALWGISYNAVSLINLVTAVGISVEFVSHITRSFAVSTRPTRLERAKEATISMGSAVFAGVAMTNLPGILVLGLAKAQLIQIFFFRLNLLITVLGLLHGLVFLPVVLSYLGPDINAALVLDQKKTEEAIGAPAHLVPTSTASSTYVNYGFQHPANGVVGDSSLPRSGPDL

In the case of `O=C1[C@H](CC[C@H](O)c2ccc(F)cc2)[C@@H](c2ccc(O)cc2)N1c1ccc(F)cc1` [EZE, Ezetimibe], the IC50 in assay [1] was 126 nM. For the same molecule, the inhibition constant (Ki) in assay [1] was 14 ± 4.11 nM; at human NPC1L1 it was 1300 nM.

Take `O=C(O)[C@H]1O[C@@H](Oc2ccc([C@@H]3[C@@H](CC[C@H](O)c4ccc(F)cc4)C(=O)N3c3ccc(F)cc3)cc2)[C@H](O)[C@@H](O)[C@@H]1O` [EZE-gluc, ezetimibe glucuronide]: in assay [1], the IC50 was determined as 24 nM and the affinity corresponds to a Ki of 3.51 ± 0.89 nM. Also, the “fold weaker than AS and PS as inhibitor of [3H]AS binding” value in assay [1] (MDCK cells) is on record as around 10 fold. The Ki at human NPC1L1 amounted to 209 nM.

For the molecule `COC(=O)[C@H]1O[C@@H](Oc2ccc([C@@H]3[C@@H](CC[C@H](O)c4ccc(F)cc4)C(=O)N3c3ccc(C#CCNS(C)(=O)=O)cc3)cc2)[C@H](O)[C@@H](O)[C@@H]1O` [PS, 4-[(2S,3R)-3-[(3S)-3-(4-fluorophenyl)-3-hydroxypropyl]-1-(4-{3-[(methylsulfonyl)amino]prop-1-yn-1-yl}phenyl)-4-oxoazetidin-2-yl]phenyl methyl-β-D-glucopyranosiduronate], in assay [1], the IC50 worked out at 3.02 nM and the Ki came to 0.33 ± 0.05 nM. For the same molecule, the Ki at human NPC1L1 was 5 nM.

A word on the IC50: it is the concentration that inhibits the measured activity by half. In general, Ki refers to the equilibrium dissociation constant of an inhibitor or competing ligand from its target.

(Values after patent publication US20100184094A1, “USE OF MDCK CELLS IN THE EVALUATION OF CHOLESTEROL MODULATORS” (priority 2007, published 2010).)
